US20250230193A1, “CYCLIC COMPOUND HAVING SELECTIVE KRAS INHIBITORY EFFECT ON HRAS AND NRAS” (CHUGAI SEIYAKU KABUSHIKI KAISHA, priority 2022, published 2025)
*1 amine or outer side, *2 acyl side, *3 side chain or, on linkers, in order; H or OH if unused. Where a SMILES comes first, the peptide text is derived from it. Bridges are numbered along the chain shown (N, C = ends). [ ]: non-standard residue; d: D form. The star is where a group is joined. hPhe(3,5-F2-4-CF3) = N[C@@H](CCc1cc(F)c(C(F)(F)F)c(F)c1)C(=O)O; hPhe(3-Cl-4-CF3) = N[C@@H](CCc1ccc(C(F)(F)F)c(Cl)c1)C(=O)O; NPrPhe(4-CF3) = CCCN[C@@H](Cc1ccc(C(F)(F)F)cc1)C(=O)O; NMeGly(cPent) = CN[C@H](C(=O)O)C1CCCC1; X13 = CCC[C@](C)(N[*:1])C(=O)[*:2]; NMeD = CN[C@@H](CC(=O)O)C(=O)O; NMeL = CN[C@@H](CC(C)C)C(=O)O; NMeAbu = CC[C@H](NC)C(=O)O; Morpholide = C1CN(*)CCO1; NMeA = CN[C@@H](C)C(=O)O; Ac5c = NC1(C(=O)O)CCCC1; Aze = O=C(O)[C@@H]1CCN1; Sar = CNCC(=O)O

Experiments:
[1] = target: GDP-bound NRAS wild-type protein (Homo sapiens, UniProt P01111); assay: Binding to NRAS by surface plasmon resonance (SPR), Single Cycle Kinetics; conditions: SPR
GDP-bound NRAS wild-type protein, sequence (P01111 whole entry): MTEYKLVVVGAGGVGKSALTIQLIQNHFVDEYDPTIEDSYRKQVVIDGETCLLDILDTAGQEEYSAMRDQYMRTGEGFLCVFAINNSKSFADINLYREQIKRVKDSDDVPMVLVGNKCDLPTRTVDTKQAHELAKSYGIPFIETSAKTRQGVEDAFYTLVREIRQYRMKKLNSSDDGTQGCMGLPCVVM

[2] = target: GDP-bound HRAS wild-type protein (Homo sapiens, UniProt P01112); assay: Binding to HRAS by surface plasmon resonance (SPR), Single Cycle Kinetics; conditions: SPR
GDP-bound HRAS wild-type protein, sequence (P01112 whole entry): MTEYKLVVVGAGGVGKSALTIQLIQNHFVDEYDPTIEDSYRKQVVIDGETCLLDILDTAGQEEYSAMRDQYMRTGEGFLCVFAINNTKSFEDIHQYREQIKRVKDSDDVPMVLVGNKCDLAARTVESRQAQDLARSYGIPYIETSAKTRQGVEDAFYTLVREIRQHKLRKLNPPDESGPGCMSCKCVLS

[3] = KD ratio, GDP-bound NRAS wild-type vs GDP-bound KRAS wild-type
[4] = KD ratio, GDP-bound HRAS wild-type vs GDP-bound KRAS wild-type

CCC[C@H]1C(=O)N[C@@H]([C@@H](C)CC)C(=O)N(C2CC2)CC(=O)N(C)[C@H]2C/C=C\CCN(C2=O)[C@@H](Cc2ccc(C)cc2)C(=O)N(C)CC(=O)N[C@@H](CCc2ccc(C(F)(F)F)c(OC)c2)C(=O)N2C[C@H](OCC)C[C@H]2C(=O)NC2(CC(C)(C)C2)C(=O)N(C)[C@@H](C2CCCC2)C(=O)N(C)[C@H](C(=O)N(C)C)CC(=O)N1C [PP2097]
NRAS/KRAS (ratio of KD value with respect to NRAS to KD value with respect to KRAS) ([1]; GDP-bound NRAS wild-type vs GDP-bound KRAS wild-type): A (a compound having 10 or more and less than 20 is denoted as A) | HRAS/KRAS (ratio of KD value with respect to HRAS to KD value with respect to KRAS) ([2]; GDP-bound HRAS wild-type vs GDP-bound KRAS wild-type): A (a compound having 10 or more and less than 20 is denoted as A)

CCCN1C(=O)[C@@H]2CCN2C(=O)[C@H](C)N(C)C(=O)[C@H]([C@@H](C)CC)NC(=O)[C@H](CC)N(C)C(=O)C[C@@H](C(=O)N2CCOCC2)N(C)C(=O)[C@H](C2CCCC2)N(C)C(=O)C2(CCCC2)NC(=O)[C@@H]2CCCN2C(=O)[C@H](CCc2ccc(C(F)(F)F)c(Cl)c2)NC(=O)CN(C)C(=O)[C@@H]1Cc1ccc(C(F)(F)F)cc1 [PP0194] ([NMeAbu]I[NMeA][Aze][NPrPhe(4-CF3)][Sar][hPhe(3-Cl-4-CF3)]P[Ac5c][NMeGly(cPent)][NMeD]-Morpholide; lactam N-11)
NRAS/KRAS (ratio of KD for GDP-bound NRAS wild-type to KD for KRAS) ([1]; KD ratio NRAS/KRAS): C (A compound having a KD ratio of 0.1 or more and less than 3 is denoted as C) | HRAS/KRAS (ratio of KD for GDP-bound HRAS wild-type to KD for KRAS) ([2]; KD ratio HRAS/KRAS): B (a compound having 3 or more and less than 10 is denoted as B)

CCO[C@@H]1C[C@H]2C(=O)NC3(CCC3)C(=O)N(C)[C@@H](C3CCCC3)C(=O)N(C)[C@H](C(=O)N3CCCC3)CC(=O)N(C)[C@H]3CCCCC/C=C/c4ccc(cc4)C[C@@H](C(=O)N(C)CC(=O)N[C@@H](CCc4ccc(Cl)c(Cl)c4)C(=O)N2C1)N1CC/C=C\C[C@@H](C1=O)N(C)C(=O)CN(C)C(=O)[C@H]([C@@H](C)CC)NC3=O [PP3049]
NRAS/KRAS (ratio of KD value with respect to GDP-bound NRAS wild-type protein to KD value with respect to KRAS) ([1]; KD ratio NRAS/KRAS, GDP-bound wild-type proteins): AA (a compound having 20 or more is denoted as AA) | HRAS/KRAS (ratio of KD value with respect to GDP-bound HRAS wild-type protein to KD value with respect to KRAS) ([2]; KD ratio HRAS/KRAS, GDP-bound wild-type proteins): A (a compound having 10 or more and less than 20 is denoted as A)

CCCN1C(=O)[C@@H]2CCN2C(=O)CN(C)C(=O)[C@H]([C@@H](C)CC)NC(=O)[C@H](CC(C)C)N(C)C(=O)C[C@@H](C(=O)N2CCOCC2)N(C)C(=O)[C@H](C2CCCC2)N(C)C(=O)[C@](C)(CCC)NC(=O)[C@@H]2CCCN2C(=O)[C@H](CCc2cc(F)c(C(F)(F)F)c(F)c2)NC(=O)CN(C)C(=O)[C@@H]1Cc1ccc(C(F)(F)F)cc1 [PP0794] ([NMeL]I[Sar][Aze][NPrPhe(4-CF3)][Sar][hPhe(3,5-F2-4-CF3)]P[X13][NMeGly(cPent)][NMeD]-Morpholide; lactam N-11)
NRAS/KRAS (ratio of KD value with respect to GDP-bound NRAS wild-type protein to KD value with respect to KRAS) ([1]; KD ratio NRAS/KRAS): C (A compound having a KD ratio of 0.1 or more and less than 3 is denoted as C) | HRAS/KRAS (ratio of KD value with respect to GDP-bound HRAS wild-type protein to KD value with respect to KRAS) ([2]; KD ratio HRAS/KRAS): B (a compound having 3 or more and less than 10 is denoted as B)

CCO[C@@H]1C[C@H]2C(=O)N(C)C3(CCCC3)C(=O)N(C)[C@@H](C3CCCC3)C(=O)N(C)[C@H](C(=O)N(C)C)CC(=O)N(C)[C@@H](CC)C(=O)N[C@@H]([C@@H](C)CC)C(=O)N(C)CC(=O)N(C)[C@H]3C/C=C\CCN(C3=O)[C@@H](Cc3ccc(C(F)(F)F)cc3)C(=O)N(C)CC(=O)N[C@@H](CCc3cc(F)c(C(F)(F)F)c(F)c3)C(=O)N2C1 [PP1804]
NRAS/KRAS (ratio of KD value for NRAS to KD value for KRAS) [1, 3]: A (a compound having 10 or more and less than 20 is denoted as A) | HRAS/KRAS (ratio of KD value for HRAS to KD value for KRAS) [2, 4]: A (a compound having 10 or more and less than 20 is denoted as A)

CCO[C@@H]1C[C@H]2C(=O)NC3(CCC3)C(=O)N(C)[C@@H](C3CCCC3)C(=O)N(C)[C@H](C(=O)N(C)C)CC(=O)N(C)[C@@H](Cc3cccs3)C(=O)N[C@@H]([C@@H](C)CC)C(=O)N(C)CC(=O)N(C)[C@H]3C/C=C\CCN(C3=O)[C@@H](Cc3ccc(C(F)(F)F)cc3)C(=O)N(C)CC(=O)N[C@@H](CCc3cc(F)c(C(F)(F)F)c(F)c3)C(=O)N2C1 [PP1123]
NRAS/KRAS (ratio of KD value with respect to NRAS to KD value with respect to KRAS) [1, 3]: A (a compound having 10 or more and less than 20 is denoted as A) | HRAS/KRAS (ratio of KD value with respect to HRAS to KD value with respect to KRAS) [2, 4]: B (a compound having 3 or more and less than 10 is denoted as B)
